Data from PubChem BioAssay (NCI).
Values joined by “and” are separate entries in the source; they are usually repeats but may differ in a detail not shown here. Identical values can stand only once.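 Following 48 hours of exposure in 96-well plates, responses at five concentrations were used to interpolate endpoints linearly. GI50: concentration for 50% inhibition of growth. The concentration for full growth arrest is given as TGI.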

Tests used:
Assay in all cases: NCI anticancer screen, dose series, 48 h
SF-539 CNS = test system: SF-539 CNS
COLO 205 colon = test system: COLO 205 colon
KM12 colon = test system: KM12 colon
SF-295 CNS = test system: SF-295 CNS
A498 renal = test system: A498 renal
IGROV1 ovarian = test system: IGROV1 ovarian
UACC-257 melanoma = test system: UACC-257 melanoma
SK-OV-3 ovarian = test system: SK-OV-3 ovarian
HOP-92 NSCLC = test system: HOP-92 NSCLC
PC-3 prostate = test system: PC-3 prostate

SMILES	GI50 (SF-539 CNS)	TGI (SF-539 CNS)	GI50 (COLO 205 colon)	TGI (COLO 205 colon)	GI50 (KM12 colon)	TGI (KM12 colon)	GI50 (SF-295 CNS)	TGI (SF-295 CNS)	GI50 (A498 renal)	TGI (A498 renal)	GI50 (IGROV1 ovarian)	TGI (IGROV1 ovarian)	GI50 (UACC-257 melanoma)	TGI (UACC-257 melanoma)	GI50 (SK-OV-3 ovarian)	TGI (SK-OV-3 ovarian)	TGI (HOP-92 NSCLC)	GI50 (HOP-92 NSCLC)	TGI (PC-3 prostate)	GI50 (PC-3 prostate)
N[C@@H]1CCCC[C@@H]1N.O=P([O-])([O-])CN(CCN(CP(=O)([O-])[O-])CP(=O)([O-])[O-])CP(=O)([O-])[O-].[Pt+2]	> 25 µM	> 25 µM	> 25 µM	> 25 µM	> 25 µM	> 25 µM	> 25 µM	> 25 µM	> 25 µM	> 25 µM	> 25 µM	> 25 µM	> 25 µM	> 25 µM	> 25 µM	> 25 µM	–	–	–	–
CC(=O)O/N=C(/C)c1ccccc1O	–	> 100 µM	–	> 100 µM	–	> 100 µM	–	> 100 µM	–	–	–	> 100 µM	–	> 100 µM	–	> 100 µM	–	–	–	–
O=C(/C=C/c1ccc([N+](=O)[O-])cc1)c1ccc(NCc2nc3ccccc3[nH]2)cc1	–	8.08 µM	–	7.71 µM	–	3.47 µM	–	18.1 µM	–	24.1 µM	–	18.1 µM	–	13.8 µM	–	30.1 µM	21.8 µM	–	–	–
Cc1cc2c(C)[nH]nc2c(C(=O)O)c1C	–	> 100 µM	–	> 100 µM	–	> 100 µM	–	> 100 µM	–	> 100 µM	–	> 100 µM	–	> 100 µM	–	–	–	–	–	–
C/C(=N/Nc1ccc([N+](=O)[O-])cc1[N+](=O)[O-])C(CC(C(=O)NCc1ccccc1)/C(C)=N\Nc1ccc([N+](=O)[O-])cc1[N+](=O)[O-])C(=O)NCc1ccccc1 (stereo not given)	–	14.9 µM	–	27.8 µM	–	15 µM	–	18.2 µM	–	30.5 µM	–	31 µM	–	18 µM	–	29.1 µM	7.98 µM	–	–	–
CC(=O)OCCOCNC(=S)N/N=C(\C)c1cnccn1	–	> 100 µM	–	> 100 µM	–	> 100 µM	–	> 100 µM	–	> 100 µM	–	> 100 µM	–	> 100 µM	–	> 100 µM	–	–	–	–
CCOC(=O)C1=C(C)N(c2ccc(F)cc2F)[C@]2(C#N)C(O)=C(Cl)C(Cl)=C(O)[C@]12C#N	> 100 µM	> 100 µM	> 100 µM	> 100 µM	> 100 µM	> 100 µM	> 100 µM	> 100 µM	> 100 µM	> 100 µM	> 100 µM	> 100 µM	> 100 µM	> 100 µM	> 100 µM	> 100 µM	> 100 µM	1.77 µM	–	–
c1ccc(NCn2cnc3ccccc32)cc1	–	> 100 µM	–	> 100 µM	–	> 100 µM	–	> 100 µM	–	> 100 µM	–	> 100 µM	–	> 100 µM	–	> 100 µM	–	–	–	–
O=[N+]([O-])c1ccc(Cl)cc1N/N=C/c1ccnc2ccccc12	–	49.5 µM	–	> 100 µM	–	> 100 µM	–	> 100 µM	–	–	–	> 100 µM	–	> 100 µM	–	> 100 µM	–	–	> 100 µM	–
N#C/C(=C\c1cccc(Cl)c1Cl)c1ccccc1	–	53.3 µM	–	> 100 µM	–	> 100 µM	–	60.4 µM	–	89.6 µM	–	55.2 µM	–	> 100 µM	–	> 89.9 µM	> 82.3 µM	–	–	–
COC(=O)CC(c1ccccc1)C1(c2ccccc2)SCCS1 (stereo not given)	–	> 290 µM	–	> 290 µM	–	> 290 µM	–	> 290 µM	–	–	–	> 290 µM	–	> 290 µM	–	> 290 µM	187 µM	–	–	–
COc1ccc(OC)c(N2CC(N)C2=O)c1 (stereo not given)	–	> 100 µM	–	> 100 µM	–	> 100 µM	–	> 100 µM	–	> 100 µM	–	> 100 µM	–	> 100 µM	–	> 100 µM	> 100 µM	–	–	–
COc1ccc(C)cc1-c1cc(Sc2ccccc2)c(-c2cc(C)ccc2OC)o1	–	> 31.6 µM	–	> 31.6 µM	–	> 31.6 µM	–	> 100 µM	–	> 31.6 µM	–	> 31.6 µM	–	> 31.6 µM	–	> 31.6 µM	> 31.6 µM	–	–	–
Cc1ccc(Oc2ccc(C)cc2N)cc1	–	> 100 µM	–	> 100 µM	–	> 100 µM	–	> 100 µM	–	> 100 µM	–	> 100 µM	–	> 100 µM	–	> 100 µM	95.3 µM	–	–	–
COc1cc(C2CC(C)(O)Oc3cc4c(cc32)OCO4)cc(OC)c1OC (stereo not given)	–	0.518 µM	–	2.92 µM	–	0.595 µM	–	–	–	> 100 µM	–	> 100 µM	–	> 100 µM	–	–	> 100 µM	–	–	–
CCCCCCCCCCCCCCCC[N+](C)(C)Cc1ccccc1	–	–	1.65 µM	3.24 µM	1.13 µM	2.42 µM	1.55 µM	3.29 µM	1.92 µM and 1.87 µM	6.3 µM and 4.83 µM	0.209 µM	0.533 µM	–	–	1.68 µM	3.7 µM	–	–	2 µM	0.537 µM
